For the experiment, the system named is P388 leukemia ip, CD2F1 mice, survival T/C. Briefly: NCI In Vivo Anticancer Drug Screen. Data for tumor model P388 Leukemia (intraperitoneal) in CD2F1 (CDF1) mice. Conditions: endpoint: median survival time, higher = longer survival. In a few lines:
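Mice carrying the transplanted tumor received test compound or vehicle. Survival was recorded in each group, and the value is the treated-group measurement divided by that of the vehicle-treated control group.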

Where [1] appears, read: dose: 50.0 mg/kg/injection, schedule: Q01DX005 (ip), vehicle: Klucel (hydroxypropylcellulose) (HPC).
[2] abbreviates: dose: 50.0 mg/kg/injection, schedule: Q01DX005 (ip), vehicle: saline.
[3] abbreviates: dose: 100.0 mg/kg/injection, schedule: Q01DX005 (ip), vehicle: saline.
Where [4] appears, read: dose: 200.0 mg/kg/injection, schedule: Q01DX005 (ip), vehicle: saline.
Setting [5] is: dose: 25.0 mg/kg/injection, schedule: Q01DX009 (ip), vehicle: saline.
The mark [6] stands for this setting: dose: 50.0 mg/kg/injection, schedule: Q01DX009 (ip), vehicle: saline.
Setting [7] is: dose: 6.25 mg/kg/injection, schedule: Q01DX009 (ip), vehicle: saline.
Setting [8] is: dose: 12.5 mg/kg/injection, schedule: Q01DX009 (ip), vehicle: saline.
[9] abbreviates: dose: 50.0 mg/kg/injection, schedule: Q01DX005 (ip), vehicle: saline with Tween-80.
Setting [10] is: dose: 100.0 mg/kg/injection, schedule: Q01DX005 (ip), vehicle: saline with Tween-80.
The mark [11] stands for this setting: dose: 200.0 mg/kg/injection, schedule: Q01DX005 (ip), vehicle: saline with Tween-80.
[12] abbreviates: dose: 12.5 mg/kg/injection, schedule: Q01DX005 (ip), vehicle: saline with Tween-80.

“And” between values parts separate entries of the source, which are not always exact repeats. Equal entries are not always repeated. Inconclusive results and toxic doses are left out. Peptide text beside a SMILES is read from it.

`O=C1SC/C(=N\N=c2/scc(-c3ccccc3)n2-c2ccc(Br)cc2)N1Cc1ccccc1`: the T/C is 86 % of control (dose: 100.0 mg/kg/injection, schedule: Q04DX002 (ip), vehicle: Klucel (hydroxypropylcellulose) (HPC)) and 91 % of control (dose: 200.0 mg/kg/injection, schedule: Q04DX002 (ip), vehicle: Klucel (hydroxypropylcellulose) (HPC)).
Take `Clc1ccc2c(NCCC3CCCN4CCCCC34)ccnc2c1` (configuration not stated): the T/C is 100 % of control (dose: 12.5 mg/kg/injection, schedule: Q01DX005 (ip), vehicle: Klucel (hydroxypropylcellulose) (HPC)); 103 % of control (dose: 25.0 mg/kg/injection, schedule: Q01DX005 (ip), vehicle: Klucel (hydroxypropylcellulose) (HPC)); 100 % of control and 97 % of control under setting [1].
Regarding `COc1cccc(NCNC2Nc3ccccc3N2)c1`, the T/C (dose: 15.0 mg/kg/injection, schedule: Q01DX005 (ip), vehicle: saline with Tween-80) was 106 % of control; the T/C (dose: 30.0 mg/kg/injection, schedule: Q01DX005 (ip), vehicle: saline with Tween-80) is 107 % of control; the T/C (dose: 60.0 mg/kg/injection, schedule: Q01DX005 (ip), vehicle: saline with Tween-80) was 107 % of control.
Turning to `NCCCCC(NC(=O)C(Cc1cnc[nH]1)NC(=O)CN)C(=O)O` (stereo not drawn) (H-Gly-His-Lys-OH; configuration not given here), the T/C was 109 % of control under setting [2], 104 % of control under setting [3] and 100 % of control under setting [4].
Consider `[O-][n+]1cccc(O)c1`, for which the T/C runs as follows: under setting [5], 100 % of control and 102 % of control; under setting [6], 102 % of control and 108 % of control; (dose: 100.0 mg/kg/injection, schedule: Q01DX009 (ip), vehicle: saline) 102 % of control and 92 % of control; (dose: 200.0 mg/kg/injection, schedule: Q01DX009 (ip), vehicle: saline) 100 % of control and 108 % of control; (dose: 400.0 mg/kg/injection, schedule: Q01DX009 (ip), vehicle: saline) 103 % of control and 97 % of control; (dose: 600.0 mg/kg/injection, schedule: Q01DX009 (ip), vehicle: saline) 108 % of control and 117 % of control.
Regarding `O=c1c(N=Nc2ccccc2Cl)c(O)n(-c2ccc(Cl)cc2)c(=S)n1-c1ccc(Br)cc1`, the T/C by setting is: (dose: 100.0 mg/kg/injection, schedule: Q04DX002 (ip), vehicle: saline with Tween-80) 99 % of control; (dose: 200.0 mg/kg/injection, schedule: Q04DX002 (ip), vehicle: saline with Tween-80) 99 % of control; (dose: 400.0 mg/kg/injection, schedule: Q04DX002 (ip), vehicle: saline with Tween-80) 112 % of control.
`ON=C1C2C=CC=CC1C=C2`: the T/C is, setting by setting: under setting [7], 90 % of control; under setting [8], 96 % of control; under setting [5], 90 % of control.
For `CCCNC(=O)NC1CC(=O)N(CCC)C1=O` (configuration not stated), the T/C runs as follows: under setting [9], 93 % of control; under setting [10], 100 % of control; under setting [11], 102 % of control.
Take `CC(N)C(=O)NC(Cc1ccccc1)C(=O)O` (configuration not stated): the T/C reads like this: under setting [2], 101 % of control; under setting [3], 105 % of control; under setting [4], 105 % of control.
Consider `Cc1cccc(C(=O)C(CN(C)C)CN(C)C)c1`, for which the T/C was 112 % of control (dose: 12.5 mg/kg/injection, schedule: Q01DX005 (ip), vehicle: saline) and 114 % of control (dose: 25.0 mg/kg/injection, schedule: Q01DX005 (ip), vehicle: saline).
On to `O=c1[nH]c(=O)c2cc3cn[nH]c3cc2[nH]1`, for which the T/C is 92 % of control under setting [9], 89 % of control under setting [10] and 101 % of control under setting [11].
On to `O=C(O)c1nnn(-c2ccccc2)n1`, for which the T/C is 101 % of control under setting [2], 101 % of control under setting [3] and 106 % of control under setting [4].
Regarding `O=C1C(c2ccccc2)C2NC(C1c1ccccc1)C([N+](=O)[O-])C=C2[N+](=O)[O-]` (configuration not stated), the T/C was 94 % of control (dose: 25.0 mg/kg/injection, schedule: Q01DX001 (ip), vehicle: Klucel (hydroxypropylcellulose) (HPC)) and 90 % of control (dose: 50.0 mg/kg/injection, schedule: Q01DX001 (ip), vehicle: Klucel (hydroxypropylcellulose) (HPC)).
Regarding `CCCCOC(OCCCC)C(C)N` (configuration not stated), the T/C by setting is: under setting [12], 108 % of control; (dose: 25.0 mg/kg/injection, schedule: Q01DX005 (ip), vehicle: saline with Tween-80) 106 % of control; under setting [9], 103 % of control and 107 % of control.
`COc1cc(CCC(C)=O)ccc1OC(=O)c1c(-c2c(F)cccc2Cl)noc1C`: the T/C was 91 % of control under setting [1]; 91 % of control (dose: 100.0 mg/kg/injection, schedule: Q01DX005 (ip), vehicle: Klucel (hydroxypropylcellulose) (HPC)); 91 % of control (dose: 200.0 mg/kg/injection, schedule: Q01DX005 (ip), vehicle: Klucel (hydroxypropylcellulose) (HPC)).
As to `COc1ccc(C(=O)NO)cc1`, the T/C (dose: 50.0 mg/kg/injection, schedule: Q01DX009 (ip), vehicle: saline with Tween-80) is 109 % of control; the T/C (dose: 100.0 mg/kg/injection, schedule: Q01DX009 (ip), vehicle: saline with Tween-80) is 102 % of control; the T/C (dose: 200.0 mg/kg/injection, schedule: Q01DX009 (ip), vehicle: saline with Tween-80) is 109 % of control; the T/C (dose: 400.0 mg/kg/injection, schedule: Q01DX009 (ip), vehicle: saline with Tween-80) was 115 % of control.
With `N=C1C=CC(=C(c2ccc(N)cc2)c2ccc(N)cc2)C=C1`, the T/C is 98 % of control (dose: 6.25 mg/kg/injection, schedule: Q01DX005 (ip), vehicle: saline with Tween-80) and 98 % of control under setting [12].
In the case of `COc1ccc2nccc(/C=C/c3ccnc4ccc(OC)cc34)c2c1`, the T/C reads like this: under setting [9], 103 % of control; under setting [10], 103 % of control; under setting [11], 100 % of control.
Regarding `COC(C(=O)C(O)C(C)O)C1Cc2cc3cc(OC4CC(OC5CC(O)C(O)C(C)O5)C(O)C(C)O4)c(C)c(O)c3c(O)c2C(=O)C1OC1CC(OC2CC(O)C(OC3CC(C)(O)C(O)C(C)O3)C(C)O2)C(O)C(C)O1` (configuration not stated), the T/C by setting is: (dose: 0.06 mg/kg/injection, schedule: Q01DX009 (ip), vehicle: saline) 122 % of control; (dose: 0.13 mg/kg/injection, schedule: Q01DX001 (ip), vehicle: saline) 104 % of control; (dose: 0.13 mg/kg/injection, schedule: Q01DX009 (ip), vehicle: saline) 106 % of control; (dose: 0.25 mg/kg/injection, schedule: Q01DX001 (ip), vehicle: saline) 103 % of control; (dose: 0.25 mg/kg/injection, schedule: Q01DX009 (ip), vehicle: saline) 109 % of control; (dose: 0.5 mg/kg/injection, schedule: Q01DX001 (ip), vehicle: saline) 109 % of control. Further, the T/C by setting is: (dose: 0.5 mg/kg/injection, schedule: Q04DX003 (ip), vehicle: saline) 116 % of control; (dose: 2.0 mg/kg/injection, schedule: Q01DX009 (ip), vehicle: saline) 151 % of control.
For the molecule `CCCCCCCCCCCCCCCCC[N+]1(CC)CCCCC1`, the T/C runs as follows: (dose: 0.39 mg/kg/injection, schedule: Q01DX009 (ip), vehicle: saline) 111 % of control; (dose: 0.78 mg/kg/injection, schedule: Q01DX009 (ip), vehicle: saline) 116 % of control.
For `Cc1ccc(C)c(C[n+]2ccccc2C2(C)OCCO2)c1`, the T/C runs as follows: under setting [9], 101 % of control; under setting [10], 103 % of control; under setting [11], 100 % of control.
Take `S=c1nnn(C2CCCN2)[nH]1` (configuration not stated): the T/C reads like this: (dose: 100.0 mg/kg/injection, schedule: Q01DX001 (ip), vehicle: Klucel (hydroxypropylcellulose) (HPC)) 100 % of control; (dose: 200.0 mg/kg/injection, schedule: Q01DX001 (ip), vehicle: Klucel (hydroxypropylcellulose) (HPC)) 97 % of control; (dose: 400.0 mg/kg/injection, schedule: Q01DX001 (ip), vehicle: Klucel (hydroxypropylcellulose) (HPC)) 100 % of control.
For the molecule `O=[N+]([O-])c1nccn1C1OC(CO)C(O)C1O` (configuration not stated), the T/C runs as follows: under setting [7], 98 % of control; under setting [8], 99 % of control; under setting [5], 104 % of control; under setting [6], 104 % of control.
Consider `CCCCCCCCCCCCCCCC[N+](C)(C)Cc1ccccc1`, for which the T/C is, setting by setting: (dose: 6.25 mg/kg/injection, schedule: Q04DX003 (ip), vehicle: saline) 98 % of control; (dose: 12.5 mg/kg/injection, schedule: Q04DX003 (ip), vehicle: saline) 98 % of control; (dose: 25.0 mg/kg/injection, schedule: Q04DX003 (ip), vehicle: saline) 100 % of control.
